According to PMC10447463, “Data-mining unveils structure–property–activity correlation of viral infectivity enhancing self-assembling peptides” (Nature Communications, 2023):
Where “and” joins values, the source holds several entries; their conditions need not be identical. Equal values may be shown once. Read-outs that look alike come from different tables or passages of the source.

Tests used:
[1] = system: HIV-1 infection of TZM-bl cells; assay: HIV-1 infectivity enhancement assay, β-galactosidase luminescence; format: cell-based; details: for Rel-EFC: infection relative to EF-C (QCKIKQIINMWQ = 1); for Log10 Infection Rel EFC: log10 of infection relative to EF-C; for Log Infectivity: Fig. S7 panel A (plotted against β-sheet content), Log10 infection relative to EF-C; for Log10 Infection Rel EF-C: HIV-1 infection of TZM-bl cells; for Abs. Inf.: β-galactosidase luminescence; for Infection (FigS19 A): mean of 3 replicates
[2] = β-sheet content by ATR-FT-IR; format: physicochemical; details: Fig. S7 panel A; β-sheet content by ATR-FT-IR
Procedure: For ATR FT–IR spectroscopy measurements, 200 µL of the respective 1 mg/mL PNF solution was lyophilized and the resulting powder used for measurement. All spectra were recorded on a Bruker Tensor 27 spectrometer with a diamond crystal as ATR element (PIKE MiracleTM, spectral resolution 2 cm^-1). Every sample was measured with 64 scans. Data were analyzed with OriginLab software and calculation of β–sheet content was conducted according to a previous report. TEM. For TEM measurements 5 µL of PNF fibrils (1 mg/mL) were placed on copper grids coated with carbon and formvar layer (300 mesh, Plano GmbH). After 10 min incubation time, the grids were staining with 4% uranyl acetate solution for 2.5 min and washed with water. Measurements were performed on a Jeol 1400 electron microscope with 120 kV acceleration voltage. CR Assay. For the determination of the amount of peptide monomer converting into nanostructures the amine reactive dye fluorescamine was used analogous to a previous reported protocol. Briefly, 100 µL of the preformed PNF solution was centrifuged in a Vivaspin 500 tube (3 kDa MWCO) to separate fibers from free peptide monomer (16200 x g, 4 °C, 45 min). The filtrate and 100 μL of the non-filtered PNF sample were lyophilized and dissolved in 30 μL DMSO. 10 μL of the filtrate and non-filtered DMSO samples were submitted in a black UV Star® 384 microliter well–plates (Greiner bio–one) and 3 μL of the fluorescamine solution (10 mg/mL, DMSO) was added to measure the fluorescence enhancement. After 20 min of incubation at RT, fluorescence was recorded on an Infinite® M1000 PRO microplate reader (Tecan) at λem = 470 nm upon excitation at λex = 365 nm with 10 nm bandwidths and multiple reads per well (3×3). Measurements were repeated in triplicates and averaged with standard deviation. All values were calculated as n-fold fluorescence enhancement (DMSO only as a reference was set to 1). The conversion rate CR was defined according to the equation Eq. (3).3 CR=100−100×fluorescenceintensityfiltrate/fluorescenceintensityoriginal[%]

[3] = Zeta-potential measurement; format: physicochemical
Method in brief: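 In this measurement, peptides aggregated for a day at RT in phosphate-buffered saline (pH 7.4, 1 mg/mL) are diluted into 1 mM potassium chloride, and the electrophoretic mobility is translated into zeta potential by Smoluchowski's relation.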

[4] = Turbidity, derived count rate of scattered light; format: physicochemical; details: for Count Rate / kcps: derived count rate of scattered light at 633 nm, 173°, from zeta-potential measurement, 0.1 mg/mL in 1 mM KCl after 1 d at 1 mg/mL in PBS, turbidity / microscopic aggregation, mean of triplicate; for Log Count Rate: log of derived count rate
Procedure: 4 µL of 1 mg/mL peptide fibrils solution is added to a 20 µL, 50 µM ThT–solution in PBS. The mixture is incubated for 15 min at RT to allow binding of ThT dye with β–sheet rich structures. For reference PBS (4 µL) was added instead of peptide fibril solution. The samples were placed in black UV Star® 384 microliter well–plates (Greiner bio–one). Fluorescence spectra were recorded on an Infinite® M1000 PRO microplate reader (Tecan) at λem = 488 nm upon excitation at λex = 440 nm with 10 nm bandwidths and multiple reads per well (3×3). Measurements were repeated in triplicates and averaged with standard deviation. […] Zeta-Potential. For the determination of the surface charge of aggregated peptides zeta-potential measurements were conducted with a Zetasizer Nano ZS, Malvern Instruments. Unless stated otherwise the peptides were dissolved from DMSO (10 mg/mL) in PBS (pH 7.4) to concentration of 1 mg/mL and incubated for 1d at RT. Just before the measurement the 60 µL of the peptides were further diluted in 600 µL KCl (aq, 1 mM) in a 1 mL disposable folded capillary cells (DTS–1060, Zetasizer Nano series, Malvern). The zeta potential of the peptides was derived from the electrophoretic mobility based on the Smoluchowski formula. All measurements were averaged over two individually performed experiments and conducted in triplicates for each sample. Aggregate analysis. […] Furthermore, fluorescence microscopy was conducted by staining 1 µL preformed fibrils (1 mg/mL) with 9 µL ThT (50 µM). Brightfield microscopy was performed simultaneously to evaluate aggregation also for non ThT-active fibrils. The measurements were performed on a Leica DMi8 microscope with 10x air objective and equipped with a Leica MC170 HD camera with a filter setting λem = 527/30 nm upon excitation at λex = 480/40 nm) and processed with the Leica LASX software. To quantify size and number of microscopic aggregation of particles > 10 µm^2 at least 3 independently measured images were analyzed via the 3D object counter analysis tool of ImageJ, v 1.53f51. Sum–frequency generation. The SFG experiments were carried out with a femtosecond Ti: Sapphire amplified laser system (Spitfire Ace, Spectra–Physics, 800 nm, 40 fs, 1 kHz) with 5 W output power. We used 2 W to pump an optical parametric amplifier (TOPAS, light conversion) with a non–collinear difference frequency generation stage to generate broadband IR pulses. Another 1 W of the laser output passed through an etalon to generate narrowband visible pulses (10 cm^-1). The incident angles of the visible and IR beams were 36° and 41° with respect to the surface normal, respectively. The visible (13 µJ) and IR (5 µJ) pulses were overlapped spatially and temporally at the sample position. Subsequently, the generated SFG pulse was guided into a spectrograph (Acton SP 300i, Princeton Instruments), and detected with an EMCCD (Newton, Andor Technology). To avoid IR absorption of water vapor, we purged N2 for the measurement. All spectra were collected in the ssp (denoting s-, s- and p-polarized SFG, visible and IR, respectively) polarization combination. The spectra were normalized to the non–resonant signal taken from z–cut quartz after subtracting a background spectrum. […]
ways to determine turbidity of samples, this can be via transmittance and via scattering. Transmittance […]
as it is an easy and fast method.10,11 However, transmittance contributes not only from µm-sized aggregates but also nm-sized aggregates such as distinct fibrils, which makes hard to distinguish between fibril formation and micrometer sized aggregation. Although dynamic light scattering is a frequently applied method for determination of particle size, it cannot be conducted in solutions with anisotropic aggregates in micrometer size range, since the Stokes-Einstein relation is only applicable for homogeneous […] spherical particles.12 Further models describing scattering intensity and […]

[5] = TZM-bl cells, asymmetric std dev errors
[6] = Log10 of infection rate relative to EF-C, Figure 3A source data
[7] = infection rate relative to EF-C, log10, data of Figure 2D
[8] = infection rate relative to EF-C, log10, source data of Figure 2C
[9] = Log10 of infection relative to EF-C, all peptides of FigS16
[10] = zeta-potential of peptide, source data of Figure 2C
[11] = zeta-potential of the peptide assemblies, mean, Figure 3A source data
[12] = Log10 of derived count rate of scattered light (turbidity)
[13] = logarithm of count rate in kcps
[14] = turbidity, Log10 of derived count rate of scattered light, Figure 3A source data
[15] = log10 of derived count rate of scattered light (turbidity)
[16] = zeta potential of peptide assemblies

| Substance | Rel-EFC ([1]; 1.3 µM peptide) | Log10 Infection Rel EFC ([1]; 1.3 µM peptide) | Log Infectivity [1, 5] | Log10 Infection Rel EF-C [1, 6] | Log10 Infection Rel EF-C [1, 7] | Log10 Infection Rel EF-C [1, 8] | Log10 of Rel to EFC (Feb2021) [1, 9] | b -sheet / % [2] [%] | Zeta-Pot. [3] | Zeta-Potential / mV [3, 10] [mV] | Zeta-Potential / mV [3, 11] [mV] | Log10 Count Rate [4, 12] | Count Rate / kcps [4] | Log10 Count Rate [4, 13] | Log10 Count Rate [4, 14] | Log10 Count Rate [4, 15] | Zeta-Pot. [3, 16] | other results |
| --- | --- | --- | --- | --- | --- | --- | --- | --- | --- | --- | --- | --- | --- | --- | --- | --- | --- | --- |
| CKFKQFFNM | 0,41 | -0,39 | -0.3892 | -0.39 | -0.3892 | -0.3892 | -0.39 | 41.58 | 15.2 | 15.05 | 15.2 | 4.436 | 27264 ± 5488 kcps and 27264 kcps | 4.436 | 4.436 |  |  | Abs. Inf. ([1]; absolute infection signal, HIV-1 on TZM-bl cells): 15720; Log10 Inf. rel. to EF-C ([1]; log10 of HIV-1 infection of TZM-bl cells relative to EF-C (EF-C = 0)): -0.3892; Log10 Count Rate ([4]; turbidity, log10 of derived count rate of scattered light): 4.436 |
| CKIKIQINMW | 1,29 | 0,11 | 0.1122 | 0.11 | 0.1122 | 0.1122 | 0.11 | 42.9134 | 18.3 | 18.43 | 18.3 | 3.692 | 4915 kcps |  | 3.692 | 3.692 |  | Abs. Inf. ([1]; absolute HIV-1 infection signal, TZM-bl cells): 7253 |
| CKIKQIIRGD | 0,05 | -1,31 |  | -1.31 | -1.311 | -1.311 |  |  |  | 13.2 | 13.2 | 3.544 | 3495 kcps |  | 3.544 | 3.544 | 13.2 |  |
| CQFQFQF | 0,35 | -0,45 | -0.4519 | -0.45 | -0.4519 | -0.4519 | -0.45 | 34.9 |  | -25.37 | -24.8 | 3.899 | 7929 kcps | 3.899 | 3.899 | 3.899 | -24.8 |  |
| HHHHKIKIKIKIWWWW [TM4] |  |  |  |  |  |  |  |  |  |  |  |  |  |  |  |  |  | Infection (FigS19 A) ([1]; 0.26 µM peptide): 15326.66667 RLU/s; Infection (FigS19 A) ([1]; 1.3 µM peptide): 20796.66667 RLU/s; Infection (FigS19 A) ([1]; 6.5 µM peptide): 12450 RLU/s; Absolute Infectivity / RLU /s (Feb2021) ([1]; Feb2021, figures match the 1.3 µM column): 20796.66667 RLU /s; n-fold to virus (Feb2021) ([1]; Feb2021, infectivity relative to virus only): 15.92; Log10 of Rel to EFC (Feb2021) ([1]; Feb2021, log10 of infectivity relative to EF-C): -0.4216; Rel-to EFC (Feb-2021) ([1]; Feb2021, n-fold infectivity relative to EF-C): 0.3788; Rel-to EFC ([1]; Fig S8 panels B, D, infectivity enhancement relative to EF-C): 0.3788; n-fold to virus ([1]; Fig S8 panels B, D, infectivity n-fold relative to virus alone): 15.92; infectivity ([1]; infectivity class (low / medium / high) of each library peptide, main list in c1-c6, same classes repeated in sub-lists of sequences containing the hydrophobicity/charge patterns P+,H0,P+,H0,P0,H0,P0, P+,H0,P0,H0,P0,H0,P0, P+,H0,P0,H0): medium; Log10 Inf. rel. to EF-C ([1]; log10 of HIV-1 infection of TZM-bl cells relative to EF-C, Fig S15 source data, asymmetric std dev errors): -0.4216; Zeta Pot. / mV [3]: 14.5 mV; Zeta category ( +1 = if > 4 mV;-1 = if < -4 mV; 0 = -4mV to 4 mV) [3]: 1 (+1 = if > 4 mV); Zeta-pot. / mV ([3]; zeta potential of peptide, Fig S15 source data): 14.5 mV; Log Count Rate ([4]; Fig S8 panels A, C, asymmetric log errors): 4.376; Log Count Rate ([4]; Fig S8 panels B, D): 4.376; Count Rate ([4]; Fig S8 panels B, D, turbidity, derived count rate of scattered light): 23756.7; Zeta Count Rate Category ([4]; category 1 / 0, no key given): 1; Zeta Count Rate / kcps ([4]; derived count rate of scattered light): 23756.66667 kcps |
